The record followed here is DBAASP.

Each structure is given as a SMILES string. Values after ≈ are worked out from the molar mass of the structure shown. A value given as a limit tells only on which side of the number the result lay.

Some test systems named below: Acinetobacter baumannii; Escherichia coli 170; Escherichia coli 5580; Salmonella typhimurium; Escherichia coli JM109; Fusarium oxysporum; Carnobacterium mobile.
Assay in all cases: ≥ marks a high value that may be exact or a test limit, other limits are often not marked, values filed in µg/mL are converted to µM
Test [1] concerns Enterobacter cloacae 6780.
In test [2] the test system is Escherichia coli ATCC 25922.
Test [3] concerns Pseudomonas aeruginosa 4677.
Test [4] has as its system Klebsiella pneumoniae 913.
Test [5] relates to Enterobacter cloacae 2524.
Test [6] deals with Klebsiella pneumoniae 1625.
The subject of test [7] is Pseudomonas aeruginosa 5106.
The test system of test [8] is Streptococcus pneumoniae ATCC 49619.
In test [9] the test system is Enterobacter cloacae 6266.
The test system of test [10] is Pseudomonas aeruginosa 3599.
In test [11] the test system is Klebsiella pneumoniae 68228.
Test [12] relates to Lactiplantibacillus plantarum CGMCC 1.11.
Test [13] relates to Staphylococcus aureus ATCC 6538P.
Test [14] deals with Lactococcus lactis ATCC 15577.
The subject of test [15] is Shigella flexneri CGMCC 1.1868.
The subject of test [16] is Lactiplantibacillus plantarum CGMCC 1.511.
Test [17] relates to Bacillus subtilis CGMCC 1.1627.
Test [18] concerns Enterococcus faecalis CGMCC 1.125.
The test system of test [19] is Micrococcus luteus CGMCC 1.193.
In test [20] the test system is Salmonella sp. CGMCC 1.1552.
Test [21] has as its system Staphylococcus aureus CGMCC 1.879.
Test [22] has as its system Escherichia coli CGMCC 1.1580.
Test [23] deals with Lactiplantibacillus plantarum CGMCC 1.556.
Test [24] relates to Listeria monocytogenes ATCC 7648.
Test [25] concerns Staphylococcus aureus CGMCC 1.2386.
Test [26] deals with Staphylococcus aureus CGMCC 1.128.
The test system of test [27] is Lactiplantibacillus plantarum CGMCC 1.124.
Test [28] deals with Pseudomonas putida CGMCC 1.645.
Test [29] deals with Pseudomonas aeruginosa CGMCC 1.647.
The subject of test [30] is Shigella dysenteriae ATCC 9753.
In test [31] the test system is Lactiplantibacillus plantarum CGMCC 1.551.
Test [32] concerns Escherichia coli NIHJ JC-2.
Test [33] relates to Pseudomonas aeruginosa U-31.
Test [34] relates to Bacillus subtilis PCI 219.
Test [35] concerns Staphylococcus aureus FDA 209P.

For the molecule `CC(C)C[C@H](NC(=O)[C@H](CCCCN)NC(=O)[C@H](CCC(N)=O)NC(=O)[C@@H](NC(=O)[C@@H](NC(=O)[C@H](CC(N)=O)NC(=O)[C@H](C)NC(=O)[C@@H](NC(=O)[C@@H](N)CCCCN)C(C)C)[C@@H](C)O)C(C)C)C(=O)N[C@@H](CCCCN)C(=O)N[C@@H](CCCN=C(N)N)C(=O)N[C@@H](CCCCN)C(=O)N[C@@H](C)C(=O)N[C@@H](CCCCN)C(=O)N[C@@H](CC(N)=O)C(=O)N[C@@H](C)C(=O)N[C@H](C(=O)O)C(C)C` [KVANTVQKLKRKAKNAV], the minimum inhibitory concentration (MIC) (commonly the least concentration at which growth counts as inhibited) in [1] is at least 50 µM; in test [2] it was above 50 µM; in test [3] it was at least 50 µM; in test [4], at least 50 µM; in the test with Acinetobacter baumannii it was at least 50 µM; in the test on Escherichia coli 170, at least 50 µM. In [5], this molecule came in with an MIC of 25 µM (≈ 47.4 µg/mL).

Turning to `CC[C@H](C)[C@H](NC(=O)CN)C(=O)N[C@@H](CC(C)C)C(=O)N[C@@H](CCCCN)C(=O)N[C@H](C(=O)N[C@H](C(=O)N[C@@H](CCCCN)C(=O)N[C@@H](CO)C(=O)N[C@H](C(=O)N[C@@H](C)C(=O)N[C@@H](CO)C(=O)N[C@@H](CCCCN)C(=O)N[C@H](C(=O)N[C@@H](C)C(=O)N[C@@H](CC(N)=O)C(=O)N[C@H](C(=O)N[C@H](C(=O)N[C@@H](CCC(N)=O)C(=O)N[C@@H](CCCCN)C(=O)N[C@@H](CC(C)C)C(=O)N[C@@H](CCCCN)C(=O)N[C@@H](CCCN=C(N)N)C(=O)N[C@@H](CCCCN)C(=O)N[C@@H](C)C(=O)N[C@@H](CCCCN)C(=O)N[C@@H](CC(N)=O)C(=O)N[C@@H](C)C(=O)N[C@H](C(=O)N[C@@H](C)C(=O)O)C(C)C)C(C)C)[C@@H](C)O)C(C)C)[C@@H](C)CC)[C@@H](C)CC)[C@@H](C)O` [GILKTIKSIASKVANTVQKLKRKAKNAVA], the MIC in the test on Escherichia coli 5580 is 1.6 µM (≈ 4.93 µg/mL); against Salmonella typhimurium, 3.15 µM (≈ 9.7 µg/mL); in [6], 1.6 µM (≈ 4.93 µg/mL); in test [7] it was 12 µM (≈ 37 µg/mL); in [2] it was 1.6 µM (≈ 4.93 µg/mL); in test [8], 25 µM (≈ 77 µg/mL). The MIC in [3] stood at 25 µM (≈ 77 µg/mL); in test [4] it was 3.1 µM (≈ 9.55 µg/mL); in test [9], 3.1 µM (≈ 9.55 µg/mL); against Acinetobacter baumannii it was 3.1 µM (≈ 9.55 µg/mL); in the test with Escherichia coli 170 it was 3.1 µM (≈ 9.55 µg/mL); in test [5] it was 6.2 µM (≈ 19.1 µg/mL). Besides, the MIC in [10] is at least 50 µM; in test [11], 6.2 µM (≈ 19.1 µg/mL).

Consider `CC[C@H](C)[C@H](NC(=O)[C@H](CC(C)C)NC(=O)[C@H](Cc1ccccc1)NC(=O)[C@H](CCC(N)=O)NC(=O)[C@H](CCC(N)=O)NC(=O)[C@H](CCCCN)NC(=O)[C@@H](NC(=O)[C@@H](N)CCCCN)[C@@H](C)O)C(=O)N[C@@H](CCCCN)C(=O)N[C@@H](C)C(=O)N[C@@H](CCC(N)=O)C(=O)N[C@H](C(=O)N[C@@H](CCC(N)=O)C(=O)N[C@@H](CC(C)C)C(=O)N[C@@H](Cc1ccccc1)C(=O)N[C@@H](CCCCN)C(=O)N[C@H](C(=O)N[C@@H](Cc1ccccc1)C(=O)NCC(=O)N[C@@H](Cc1ccc(O)cc1)C(=O)N[C@H](C(=O)N[C@@H](CC(C)C)C(=O)O)[C@@H](C)O)C(C)C)[C@@H](C)O` [KTKQQFLIKAQTQLFKVFGYTL], for which the minimal inhibitory concentration (MIC) in [12] came out at 0.885 µM (≈ 2.33 µg/mL); in test [13] it was 0.178 µM (≈ 0.468 µg/mL); in [14] it was 1.23 µM (≈ 3.22 µg/mL); in [15], 0.135 µM (≈ 0.355 µg/mL); in test [16] it was 1.35 µM (≈ 3.56 µg/mL); in test [17], 0.121 µM (≈ 0.318 µg/mL). Moreover, the MIC in test [18] came to 0.146 µM (≈ 0.384 µg/mL); in test [19] it was 0.153 µM (≈ 0.403 µg/mL); in [20], 0.136 µM (≈ 0.358 µg/mL); in test [21] it was 0.132 µM (≈ 0.347 µg/mL); in [22], 0.235 µM (≈ 0.618 µg/mL); in test [23] it was 0.682 µM (≈ 1.79 µg/mL). Moreover, the MIC amounted to 0.112 µM (≈ 0.295 µg/mL) in test [24]; 0.21 µM (≈ 0.553 µg/mL) in test [25]; 0.135 µM (≈ 0.355 µg/mL) with Escherichia coli JM109; 0.218 µM (≈ 0.574 µg/mL) in test [26]; 0.242 µM (≈ 0.637 µg/mL) in test [27]; 0.075 µM (≈ 0.197 µg/mL) in test [28]. The MIC in test [29] turned out to be 0.144 µM (≈ 0.379 µg/mL); in test [30], 0.185 µM (≈ 0.487 µg/mL); in test [31], 0.722 µM (≈ 1.9 µg/mL).

In the case of `CC(C)C[C@H](NC(=O)[C@H](CCCCN)NC(=O)[C@H](CCCCN)NC(=O)[C@H](CC(C)C)NC(=O)[C@H](CC(C)C)NC(=O)[C@H](CCCCN)NC(=O)[C@H](CCCCN)NC(=O)[C@H](Cc1c[nH]c2ccccc12)NC(=O)[C@H](CCCCN)NC(=O)[C@H](CCCCN)NC(=O)[C@H](CC(C)C)NC(=O)[C@H](CC(C)C)NC(=O)[C@H](CCCCN)NC(=O)[C@H](CCCCN)NC(=O)[C@H](CC(C)C)NC(=O)[C@H](CCCCN)NC(=O)[C@@H](N)CCCCN)C(=O)N[C@@H](CCCCN)C(=O)O` [KKLKKLLKKWKKLLKKLK], the minimum inhibitory concentration (MIC) in test [32], in test [33], in [34] and in test [35] was at least 43.6 µM each time.

As to `CSCC[C@H](N)C(=O)N[C@@H](C)C(=O)N[C@@H](CO)C(=O)N[C@@H](CCCN=C(N)N)C(=O)N[C@@H](C)C(=O)N[C@@H](C)C(=O)N[C@@H](CCCN=C(N)N)C(=O)N[C@@H](CC(C)C)C(=O)N[C@@H](C)C(=O)N[C@@H](C)C(=O)N[C@@H](CCCN=C(N)N)C(=O)N[C@@H](CC(C)C)C(=O)N[C@@H](C)C(=O)N[C@@H](CCCN=C(N)N)C(=O)N[C@@H](CC(C)C)C(=O)N[C@@H](C)C(=O)N[C@@H](CC(C)C)C(=O)N[C@@H](CCCN=C(N)N)C(=O)N[C@@H](C)C(=O)N[C@@H](CC(C)C)C(=O)O` [MASRAARLAARLARLALRAL], the MIC with Fusarium oxysporum was found to be 0.1 µM (≈ 0.215 µg/mL); in the test with Carnobacterium mobile, 2.5 nM (≈ 0.00538 µg/mL).
